Assay results as given in PMC4536891, “Insertion of a xylanase in xylose binding protein results in a xylose-stimulated xylanase” (Biotechnology for Biofuels, 2015).

Tests used:
[1] = biological target: T1, parental XBP (xylose binding protein, XylF) (Escherichia coli, UniProt P37387); experiment: intrinsic tryptophan fluorescence titration; conditions: 20 mM Hepes pH 7.5, 25 °C; 3 µM protein
T1 construct: full XBP expressed in E. coli Rosetta (DE3) and purified; vector, tag and signal peptide of the purified parental XBP not described
T1 sequence (P37387 24-330): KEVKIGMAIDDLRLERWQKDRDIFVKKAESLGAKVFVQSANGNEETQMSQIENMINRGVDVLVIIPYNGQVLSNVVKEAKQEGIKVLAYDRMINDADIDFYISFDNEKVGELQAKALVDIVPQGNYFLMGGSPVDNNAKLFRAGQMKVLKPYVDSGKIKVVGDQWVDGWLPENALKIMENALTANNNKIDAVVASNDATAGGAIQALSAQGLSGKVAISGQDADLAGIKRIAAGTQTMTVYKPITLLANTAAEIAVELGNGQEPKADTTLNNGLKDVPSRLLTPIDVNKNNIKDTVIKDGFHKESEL

parental XynA = biological target: T2, parental XynA (Bacillus subtilis, UniProt P18429); experiment: RBB-xylan hydrolysis by culture supernatant, dye release at […] nm; assay type: biochemical; conditions: 1% (m/v) D-xylose; acetate pH 5.5, 37 °C; product inhibition
T2 construct: GH11 xylanase, mature 185 residues; activity ratio measured in culture supernatants

[2] = biological target: T3, 2091A (XynA inserted in XBP at position 209); experiment: intrinsic tryptophan fluorescence titration; assay type: binding, Escherichia coli; conditions: 20 mM Hepes pH 7.5, 25 °C; 3 µM protein; XBP domain site, allosteric activator of xylanase
T3 construct: gene xylF; single polypeptide: XBP to A209, linker AG, XynA (1-185), linker GGA, XBP from residue 210; pET28a, E. coli Rosetta (DE3), Ni-NTA (His tag not described); with Endo-1,4-beta-xylanase A

[3] = biological target: T4, 2621B (XynA inserted in XBP at position 262); experiment: intrinsic tryptophan fluorescence titration; assay type: binding, Escherichia coli; conditions: 20 mM Hepes pH 7.5, 25 °C; 3 µM protein; XBP domain site, allosteric activator of xylanase
T4 construct: gene xylF; single polypeptide: XBP to Q262, linker GGGG, XynA (1-185), linker GA, XBP from residue 263; pET28a, E. coli Rosetta (DE3), Ni-NTA (His tag not described); with Endo-1,4-beta-xylanase A

Kd [1]: 140 ± 30 nM
+xyl/-xyl ratio^a (parental XynA): 0.80 ± 0.04
Kd [2]: 150 ± 20 nM
Kd [3]: 160 ± 10 nM
Compound: OC1OC[C@@H](O)[C@H](O)[C@H]1O (stereo partly drawn) [D-xylose]
